Experimental findings from PubChem BioAssay (NCI) are described below.

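How tested: cells in 96-well plates exposed to compound for 48 hours at five concentrations. GI50 is the concentration that inhibits growth by half. At the TGI there is no net growth.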 Some results are limits rather than exact numbers.

What all share (assay): NCI anticancer screen, dose series, 48 h
Test [1] relates to 786-0 renal.
In test [2] the test system is CCRF-CEM leukemia.
The test system of test [3] is COLO 205 colon.
The subject of test [4] is EKVX NSCLC.
Test [5] deals with HCC-2998 colon.
Test [6] concerns HOP-62 NSCLC.
In test [7] the test system is KM12 colon.
Test [8] concerns NCI-H23 lung.
Test [9] relates to OVCAR-3 ovarian.
Test [10] deals with PC-3 prostate.
The test system of test [11] is SF-539 CNS.
The test system of test [12] is U251 CNS.
For test [13], the system named is UACC-257 melanoma.
In test [14] the test system is UACC-62 melanoma.
For test [15], the system named is SK-MEL-2 melanoma.

On to `O=C1C(Cl)C(c2cccc(Cl)c2)N1c1ccc(-n2c(=S)[nH]c3ccccc3c2=O)cc1` (stereo unspecified), for which the TGI in [1] is 54.9 µM; in test [2], 77.5 µM; in [3], 77.9 µM; in test [4], over 100 µM; in [5], 37.8 µM; in [6], 73.8 µM. The TGI in [7] is over 100 µM; in [8] it was 49.7 µM; in [9], over 100 µM; in test [10], over 100 µM; in test [11], 54.6 µM; in test [12] it was 27.9 µM. In addition, the TGI came out at 98.6 µM in test [13] and 31.5 µM in test [14].

Turning to `COc1cc(OC)cc(-c2nc3cc(F)ccc3s2)c1`, the TGI is 23.5 µM in test [1]; over 100 µM in test [2]; over 100 µM in test [3]; 43.5 µM in [4]; 0.0449 µM in test [5]; over 100 µM in [7]. For the same compound, the TGI in test [8] is 28.4 µM; in test [9], 86.3 µM; in [10], over 100 µM; in test [11], 31.3 µM; in test [15] it was 62.5 µM; in [12], 33.9 µM. In addition, the TGI is over 100 µM in test [13] and 41.7 µM in [14].

Take `CCOP(=O)(CN1CCNCCNCC1)OCC`: the TGI in [1], in [2], in test [3], in [4], in test [5] and in test [6] was over 100 µM each time. In addition, the TGI in test [7], in test [9], in [10], in test [11], in test [15] and in test [12] was over 100 µM in each case. Moreover, the TGI in [13] and in test [14] was over 100 µM in each case.

Turning to `CCN(CC)CC(=O)O[C@]1(CC)C(=O)OCc2c1cc1n(c2=O)Cc2cc3ccccc3nc2-1`, the TGI in [1] is 0.13 µM; in test [3], 3.22 µM; in [4] it was over 100 µM; in test [5], 1.28 µM; in [6], under 0.048 µM; in [7] it was 0.862 µM. Also, the TGI in test [8] was 0.13 µM; in test [9] it was 0.947 µM; in test [10] it was over 100 µM; in test [11], 0.17 µM; in test [15] it was 1.42 µM; in test [12], 0.221 µM. The TGI was 1.05 µM in [13] and 0.0261 µM in [14].

Turning to `CCNc1cc2c(cc1O)CC[C@@H]1[C@@H]2CC[C@]2(C)[C@@H](O)CC[C@@H]12`, the TGI in [1] is 25.3 µM; in test [2], over 100 µM; in test [3], 27.8 µM; in test [4], 34.8 µM; in test [5], 7.33 µM; in [6] it was 23.2 µM. The TGI in [7] is 22.4 µM; in test [8] it was 28.7 µM; in test [9], 3.63 µM; in test [10] it was 22.8 µM; in test [11], 15.5 µM; in [12] it was 18.5 µM. For the same compound, the TGI in [13] was 25 µM; in test [14] it was over 35 µM. The GI50 in test [6] was 0.584 µM; in test [9], 0.815 µM; in test [11], 0.741 µM.

Take `Cc1cc(C)n(C2OC(CO)C(O)C(O)C2O)c(=S)c1C#N` (stereo unspecified): the TGI in test [1], in test [2], in test [3], in [5], in [6] and in test [7] was over 100 µM in each case. Besides, the TGI in test [8], in test [9], in [10], in [11], in test [15] and in test [12] was over 100 µM in each case. Moreover, the TGI in test [13] and in test [14] was over 100 µM throughout.

In the case of `CC1(C)CC(=O)C(/C=N/c2nc(-c3ccccc3)cs2)=C(O)C1`, the TGI in [1], in [3], in [4], in test [5], in [6] and in [7] was over 100 µM in each case. The TGI was over 100 µM in [8]; over 100 µM in [9]; over 100 µM in [10]; 64.7 µM in test [11]; over 100 µM in test [15]; over 100 µM in [12]. This compound had a TGI in test [13] of over 100 µM.

In the case of `CCn1c2ccccc2n2c(=O)c3c(c(C#N)c12)CCCC3`, the TGI in test [1], in [2], in test [3], in [4], in test [5] and in test [7] was over 100 µM in each case. Also, the TGI in test [8], in [9], in [10], in test [11], in test [15] and in test [12] was over 100 µM throughout. The TGI in test [13] and in [14] was over 100 µM each time.

As for `Cc1ccc(NC(=S)N/N=C(/c2ccccc2)c2ccccn2)cc1`, the TGI in test [1] was found to be 13.7 µM; in [3], 2.89 µM; in test [4], 12.9 µM; in test [5], 21 µM; in [6], 17.9 µM; in test [7], 13.4 µM. Besides, the TGI in test [8] stood at 26.7 µM; in test [9] it was 12.5 µM; in test [10] it was 20.9 µM; in [11] it was 10.3 µM; in test [15], 15.1 µM; in test [12], 12.9 µM. Further, the TGI in [13] was 1.9 µM; in test [14] it was 10.1 µM.

As for `COc1ccc(N2C(=O)c3cc(C)cnc3S2(=O)=O)cc1`, the TGI in test [1], in test [2], in test [3], in test [4], in test [5] and in test [6] was over 100 µM each time. The TGI in test [7], in test [8], in test [9], in test [10], in test [15] and in test [12] was over 100 µM each time. Besides, the TGI in test [14] was over 100 µM.
